The subject of data set [1] is BEAS-2B cell line. The data set is described as follows: Mitophagy activity in BEAS-2B cells expressing mt-Keima (FACS, confocal microscope, mito-YFP). The format is cell-based, human. The method, then: To analyze the mitophagy-promoting activity effect of the CD1-012 synthesized in the Example 1, the BEAS-2B cell line, which is a human normal lung cell line, was induced to express the mt-Keima fluorescent protein. Following this, the CD1-012 (15 μM) and the compound of Comparative Example 1, CCCP (10 μM), were treated for 24 hours. After the treatment, the mitophagy activity of each sample was measured, and the results were represented in FIGS. 1A to 1C.
Specifically, FIG. 1A represents the analysis results using flow cytometry (FACS) (treatment of CD1-012 at 15 μM for 24 hours), FIG. 1B represents the analysis results using a confocal microscope (treatment of CD1-012 at 15 μM for 18 hours), and FIG. 1C represents the measurement results of the quantitative changes in the mitochondria using a fluorescent protein, mito-YFP, which includes a targeting sequence to transport protein to the mitochondria (treatment of CD1-012 at 20 μM for 24 hours).
It was confirmed whether CD1-012 synthesized in Example 1 promotes mitophagy activity in a concentration- and time-dependent manner. To this end, the CD1-012 was treated at various concentrations or at a fixed concentration (15 μM) for different treatment durations in the BEAS-2B cell line expressing mt-Keima, and mitophagy activity was measured using a flow cytometer.
(§1) It was confirmed whether CD1-012 synthesized in Example 1 specifically increases only mitophagy activity. To this end, the BEAS-2B cell line expressing mt-Keima was treated with CD1-012 (15 μM) or Comparative Example 1 (CCCP, 10 μM) for 18 hours, and mitophagy activity was analyzed using a confocal microscope. Additionally, to measure autophagy activity, the BEAS-2B cell line expressing Keima fluorescent protein was incubated in Hanks' balanced salt solution (HBSS) for 3 hours to induce a starvation condition (starv.), and the results were compared with samples treated with CD1-012 (15 μM) for 18 hours using a confocal microscope.
To this end, the human normal lung cell line BEAS-2B, expressing mt-Keima fluorescent protein, was treated with CD1-012, Comparative Example 2 (palmatine), or Comparative Example 3 (berberine) at various concentrations, and the mitophagy-inducing activity of each sample was compared.

For data set [2], the system named is BEAS-2B cell line. The data set is described as follows: Autophagy activity in BEAS-2B cells expressing Keima (confocal microscope). Particulars: 15 μM, 18 hours (FIG. 4B). The format is cell-based, human. The method, then:
as §1

Data set [3] relates to mitochondrial reactive oxygen species (ROS). Briefly: Mitochondrial reactive oxygen species, MitoSOX assay. The format is cell-based. To be noted: CD1-012 10 μM or 15 μM, CCCP 10 μM, 24 hours (FIG. 6). The method, then:
It was confirmed whether the isoquinoline derivative according to the present invention induces mitochondrial dysfunction, similar to CCCP. To this end, the CD1-012 (10 μM or 15 μM) and CCCP (10 μM) were treated for 24 hours, and the mitochondrial membrane potential and mitochondrial reactive oxygen species (ROS) levels in each sample were analyzed. Mitochondrial membrane potential was analyzed using the TMRM (tetramethylrhodamine methyl ester) assay, and mitochondrial ROS levels were analyzed using the MitoSOX assay.

Data set [4] concerns PINK1-deficient Drosophila (B9). The data set is described as follows: Mitochondrial function in Drosophila model of Parkinson's disease. The format is in vivo. The method, then: In this example, to further verify the effect of the compound of the present invention (CD1-012) on improving mitochondrial dysfunction, a Drosophila model of Parkinson's disease was used. To this end, after administering CD1-012 to PINK1 gene-deficient Drosophila, mitochondrial function was analyzed. […] As a result, the number of damaged mitochondria (with abnormally swollen morphology) observed in the PINK1-deficient Drosophila was reduced in the CD1-012-treated group as compared to an untreated control (FIG. 9A). […] In addition, after 2 weeks of CD1-012 administration, it could be observed that the ATP production capacity of the brain tissue of the PINK11-deficient Drosophila was restored (FIG. 9C).

Data set [5] concerns human nerve cell line H-SY5Y. The data set is described as follows: Mitochondrial function in sporadic Parkinson's disease cell model (MPP+ or 6-OHDA). The format is cell-based. Particulars: CD1-012 20 μM one day. As for the experimental part:
Sporadic Parkinson's disease has progressive motor/non-motor dysfunction symptoms, and most patients with Parkinson's disease have this disease. In this example, the therapeutic effect of CD1-012 on sporadic Parkinson's disease was confirmed. To this end, after a sporadic Parkinson's disease cell model was manufactured by treating a human nerve cell line H-SY5Y with the neurotoxins MPP+(62.5 μM) and 6-OHDA (40 μM) for two days, the cell model was treated with CD1-012 (20 μM) for one day and then the membrane potential and ATP production capacity of mitochondria were analyzed after two days.

Data set [6] relates to mouse model of Parkinson's disease established by injecting MPTP. Briefly: Motor performance (pole test, Rota-rod test) in MPTP mouse model of Parkinson's disease. The format is in vivo. As for the experimental part: In this example, the effect of the compound of the present invention (CD1-012) on treating Parkinson's disease was confirmed using a mouse model of Parkinson's disease. To this end, a mouse model of Parkinson's disease established by injecting the neurotoxin, 1-methyl-4-phenyl-1,2,3,6-tetrahydropyridine (MPTP), was used. After nasal administration of CD1-012 at a concentration of 1 mg/kg daily for 2 weeks to the mouse model, motor performance was analyzed using the pole test and Rota-rod test (FIG. 11A).
Background: The rotarod test checks motor coordination on a turning rod.

Data set [7] has as its system mitochondria from the substantia nigra of the mice. Briefly: Mitochondrial function in substantia nigra of MPTP mouse model (TMRM, ATP production). The format is in vivo. The method, then:
Subsequently, it was confirmed that the compound CD1-012 of the present invention has an effect of improving mitochondrial dysfunction using an animal model of Parkinson's disease. To this end, after separating mitochondria from the substantia nigra of the mice undergoing the behavioral experiment in Example 4, the membrane potential of mitochondria was analyzed through TMRM (100 nM, 37° C., 30 min) fluorescent staining, and the mitochondrial function was analyzed by measuring ATP production (analyzed for 5 mice per group).

Each structure is given as a SMILES string.

With `Oc1cc2c(cc1O)-c1cc3ccc(O)c(O)c3c[n+]1CC2` [CD1-012, 2,3,9,10-tetrahydroxy-5,6-dihydroisoquinolino[3,2-a]isoquinolin-7-ium bromide], in the data set on BEAS-2B cell line [1] (15 μM (FIG. 3B)), the “treatment time after which mitophagy activity began to significantly increase” value worked out at 3 h and the “treatment time at which mitophagy activity reached its maximum level” value stood at 18 h. Also, in the data set on BEAS-2B cell line [1] (BEAS-2B mt-Keima (FIG. 5)), the “concentration at which mitophagy activity reached a level comparable to the maximum of palmatine and berberine” value was found to be 10 µM; the “mitophagy-inducing activity relative to berberine” value was “approximately 8 times”; the “mitophagy-inducing activity relative to palmatine” value is “approximately 40 times”. In addition, the “concentration at which mitophagy activity began to significantly increase compared to untreated control” value with BEAS-2B cell line [1] (BEAS-2B mt-Keima, flow cytometer (FIG. 3A)) was at least 7.5 µM. The “mitophagy activity compared to the untreated control group (Con)” value in the data set with BEAS-2B cell line [1] (BEAS-2B mt-Keima, 15 μM 24 h (FACS), 15 μM 18 h (confocal), 20 μM 24 h (mito-YFP)) was “significant increase in mitophagy activity”. Moreover, the “mitophagy-promoting effect compared with CCCP (confocal microscope)” value with BEAS-2B cell line [1] (CD1-012 15 μM, CCCP 10 μM, 18 hours (FIG. 4A)) is recorded as “mitophagy-promoting effects similar to those observed in the CCCP-treated sample”. Further, in the data set with BEAS-2B cell line [1] (FACS, CD1-012 15 μM, CCCP 10 μM, 24 hours), the “mitophagy activity compared with CCCP-treated sample (FIG. 1A)” value was “increased as significantly as that of the sample treated with the representative mitophagy promoting compound, CCCP”. The “concentration dependence of mitophagy activity” value in the data set with BEAS-2B cell line [1] (up to the maximum treatment concentration of 17.5 μM (FIG. 3A)) is “continued to increase in a concentration-dependent manner”. Besides, the “autophagy activity compared to the untreated control group” value with BEAS-2B cell line [2] is recorded as “no significant difference in autophagy activity”. In addition, the “mitochondrial ROS levels” value in data set [3] is “no increase in mitochondrial ROS was detected”. The “mitochondrial ROS in brain tissue (DCF-DA staining)” value in data set [4] (1 mM for 2 weeks (FIG. 9B)) is “significantly inhibited”. Besides, the “number of damaged mitochondria (abnormally swollen morphology) in dopaminergic neurons compared to untreated control” value in data set [4] (1 mM for 2 weeks, brain tissue (FIG. 9A)) is “reduced”. For the same molecule, the “ATP production capacity of brain tissue” value in data set [4] (2 weeks of administration (FIG. 9C)) is on record as “restored”. In data set [5] (6-OHDA (40 μM) model, analyzed after two days (FIG. 10B)), the mitochondrial membrane potential result is recorded as “restored”. Further, in data set [5] (6-OHDA (40 μM) model, analyzed after two days (FIG. 10D)), the “ATP synthesis capacity of mitochondria” value is “significantly restored”. The mitochondrial membrane potential entry in data set [5] (MPP+ (62.5 μM) model, analyzed after two days (FIG. 10A)) is reported as “restored”. For the same molecule, the “ATP synthesis capacity of mitochondria” value in data set [5] (MPP+ (62.5 μM) model, analyzed after two days (FIG. 10C)) is listed as “significantly restored”. Moreover, in data set [6] (MPTP mice, nasal 1 mg/kg daily for 2 weeks (FIG. 11B)), the “pole test, motor performance (time to reach the ground)” value is reported as “recovered to a level equivalent to that of the normal control”. The “Rota-rod test, time spent on the cylinder” value in data set [6] (MPTP mice, nasal 1 mg/kg daily for 2 weeks (FIG. 11C)) is recorded as “markedly recovered”. Moreover, the “motor performance of normal mice administered CD1-012 alone compared to untreated normal control (toxicity)” value in data set [6] (normal mice, CD1-012 alone) is “no significant difference in motor performance”. Moreover, the “ATP synthesis capacity of mitochondria in substantia nigra” value in data set [7] (MPTP mice coadministered CD1-012 (FIG. 12B)) is listed as “restoration”. Further, in data set [7] (MPTP mice coadministered CD1-012, TMRM (FIG. 12A)), the “membrane potential of mitochondria in substantia nigra” value is listed as “restoration”.
